Reference: paper PMC4445981, “The glutamate transport inhibitor DL-Threo-β-Benzyloxyaspartic acid (DL-TBOA) differentially affects SN38- and oxaliplatin-induced death of drug-resistant colorectal cancer cells” (BMC Cancer, 2015)

What was measured:
SLC1A3 = settings: depending on the system and experimental setup; cited from earlier work
[1] = test system: parental and drug-resistant HCT116 and LoVo cell lines; experiment: Nucleus (DAPI) counting of adherent cells, OPERA confocal; format: cell-based, human; settings: DL-TBOA 70 or 350 μM with SN38 or oxaliplatin, 48 h
Method: Cells were seeded in 96-well plates (Greiner Bio) one day prior to experiments. Cells were treated with chemotherapy and/or inhibitors as indicated and incubated for 48 h. Medium was aspirated, and cells were washed gently in ice cold PBS, fixed in 2 % paraformaldehyde, washed in PBS, and nuclei stained by 5 min incubation with DAPI. Plates were scanned using an OPERA high-throughput microscope (PerkinElmer). Nucleus counting was performed using proprietary OPERA software, based on 100 points per well, and cell counts from non-treated cells as controls.
Supplementary file 12885_2015_1405_MOESM2_ESM.tiff: Additional file 2: Figure S2. Nucleus counting after treatment of parental and drug-resistant HCT116 and LoVo cells with DL-TBOA. Parental and drug-resistant HCT116 and LoVo cell lines seeded in 96-well dishes were exposed to SN38 (0.1 or 0.8 μM) or oxaliplatin (0.8 or 20 μM), alone or in combination with 70 or 350 μM DL-TBOA as indicated, for 48 h. Cells were washed in PBS, fixed in 2 % paraformaldehyde and nuclei were stained with DAPI. The number of adherent cells was determined by automated counting using an OPERA confocal microscope. (A-B) Parental HCT116 cells. (C) SN38 resistant HCT116 cells. (D) Oxaliplatin-resistant HCT116 cells. (E-F) Parental LoVo cells. (G) SN38 resistant LoVo cells. (H) Oxaliplatin-resistant LoVo cells. […]

[2] = test system: [3H]-D-Asp uptake (glutamate transporter activity) in HCT116-PAR cells; experiment: [3H]-D-Asp uptake assay, HCT116-PAR; format: cell-based, human; settings: HCT116-PAR, 100 nM [3H]-D-Asp, 6 min, 37 °C
Method: (§1) We therefore next determined glutamate transporter activity (as uptake of the substrate [^3H]-D-Asp following a 6-min incubation in buffer supplemented with a tracer concentration of 100 nM [^3H]-D-Asp). […] To determine which transporter(s) was responsible for the [^3H]-D-Asp uptake, we assessed the effect of DL-TBOA, a nonselective inhibitor of EAATs, and UCPH-101, a specific SLC1A3 inhibitor [16, 28, 29]. […] Basal [^3H]-D-Asp uptake was decreased by about 60 % in SN38-resistant compared to parental HCT116 cells, whereas that in SN38-resistant LoVo cells was nearly tripled compared to parental LoVo cells.
(§2) The [^3H]-D-Asp uptake assay was performed essentially as in [30]. Briefly, cells were split into poly-D-lysine-coated white 96-well plates (PerkinElmer). A similar number of cells were seeded for HCT116 parental, HCT116-SN38 and HCT116-Oxa cell lines (7 × 10^4 cells/well) and LoVo parental, Lovo-SN38 and Lovo-Oxa cell lines (6 × 10^4 cells/well). 16–24 h later, culture medium was aspirated, and cells were washed once with 100 μl assay buffer (Hank’s Buffered Saline Solution supplemented with 20 mM HEPES, 1 mM CaCl2 and 1 mM MgCl2, pH 7.4). 50 μl assay buffer supplemented with 100 nM [^3H]-D-Asp and test compounds as indicated was added, and the plate was incubated at 37 °C for 6 min. Non-specific [^3H]-D-Asp uptake was determined in wells with 3 mM L-glutamate. The assay mixture was quickly removed, and wells were washed with 2 × 100 μl ice-cold assay buffer, followed by 150 μl Microscint™20 scintillation fluid (PerkinElmer). The plate was shaken for 1 h and counted in a Wallac 1450 MicroBeta Trilux scintillation counter (GMI, Ramsey, MN).

[3] = test system: retinoblastoma protein phosphorylation on Ser 807/811 (pRb); experiment: pRb (Ser 807/811) level by Western blotting; format: cell-based, human
Method: Cells were grown to a confluence of 60-80 % and treated with chemotherapy, siRNA- or plasmid transfection as indicated. Cells were washed once in PBS, lysed in lysis buffer (1 % SDS, 0.1 M Tris pH 7.5, and 1 mM Na3VO4), sonicated, and protein content determined (DC assay, BioRad). Lysates were mixed 2:1with NuPage LDS sample buffer (Invitrogen). SDS-PAGE was carried out in NOVEX chambers with NuPAGE 10 % Bis-Tris gels under reducing and denaturing conditions, using BenchMark protein ladder (Invitrogen), and 15 μg protein per lane. Proteins were transferred to PVDF membranes, which were Ponceau S stained, blocked for 1 h at 37 °C in 5 % nonfat dry milk in TBST (0.01 M Tris/HCl, 0.15 M NaCl, 0.1 % Tween 20, pH 7.4), incubated overnight at 4 °C with primary antibodies diluted in blocking buffer, washed in TBST, incubated with secondary antibodies for 1 h, washed in TBST, and developed using BCIP/NBT (KPL). Bands were scanned and quantified using UN-SCAN-IT (Silk Scientific).
Supplementary file 12885_2015_1405_MOESM5_ESM.tiff: Additional file 5: Figure S5. Effects of DL-TBOA on proliferation after chemotherapy treatment. Parental and drug-resistant HCT116 (A) and LoVo (B) cell lines seeded in 6-well dishes were exposed to SN38 (0.8 μM) or oxaliplatin (20 μM) alone or in combination with 350 μM DL-TBOA as indicated, for 24 h. Equal amounts of protein per lane were separated by SDS-PAGE and the protein levels of phosphorylation of retinoblastoma protein on Ser 807/811 (pRb) were determined by Western blotting. Top: Representative Western blots, with β-actin as loading control. Bottom: Densitometric quantifications based on 3 independent experiments per condition. Data are means with S.E.M. error bars of 3 independent experiments. Two-way ANOVA with Tukey post-test.

[4] = test system: [3H]-D-Asp uptake (glutamate transporter activity) in LoVo-PAR cells; experiment: [3H]-D-Asp uptake assay, LoVo-PAR; format: cell-based, human; settings: LoVo-PAR, 100 nM [3H]-D-Asp, 6 min, 37 °C
Method: as §1, §2

[5] = read-out: IC50, [3H]-D-Asp uptake

SMILES: N[C@H](C(=O)O)[C@H](OCc1ccccc1)C(=O)O (racemic) [TBOA, DL-Threo-β-Benzyloxyaspartic acid]
- IC50 values in uptake assays (SLC1A3): low micromolar range
- effect on number of surviving adherent cells after chemotherapy [1]: opposite effects of DL-TBOA on SN38- and oxaliplatin-induced loss of viability are also evident
- pIC50 ± S.E.M., [3H]-D-Asp uptake [2]: 5.75 ± 0.03
- IC50 [2, 5]: 1800 nM
- effect on cellular level of phospho-Retinoblastoma protein ([3]; DL-TBOA, HCT116 and LoVo cells): did not significantly alter
- effect on pRb level after oxaliplatin treatment ([3]; all cell types except oxaliplatin-resistant HCT116, 350 μM DL-TBOA + 20 μM oxaliplatin, 24 h, not statistically significant): slightly but consistently decreased pRb levels
- effect on pRb level ([3]; control conditions, both parental cell lines, 350 μM DL-TBOA, 24 h, not statistically significant): tended to increase pRb levels
- pIC50 ± S.E.M., [3H]-D-Asp uptake [4]: 5.84 ± 0.03
- IC50 [4, 5]: 1400 nM
